Results: PMC8485799, “Synthesis and Antiprotozoal Profile of 3,4,5‐Trisubstituted Isoxazoles” (ChemistryOpen, 2021)

How the values were obtained:
[1] = Cytotoxicity assay in mammalian cells (MTT), macrophages, 48 h; format: cell-based; conditions: mouse, J774 A1 macrophages, pH 7.2; 50 % inhibition of macrophages growth, 48 h, MTT
Protocol: (§1) The antiproliferative activity was determined in promastigote forms of Leishmania amazonensis (WHOM/BR/75/JOSEFA strain) and epimastigote forms of Trypanosoma cruzi (Y strain). The promastigote forms of L. amazonensis were cultured in Warren medium (brain heart infusion, hemin, and folic acid; pH 7.4) supplemented with 10 % fetal bovine serum (FBS) at 25 °C. The epimastigote forms of T.cruzi were cultured in LIT medium (liver infusion tryptose; hemin, and folic acid; pH 7.4) supplemented with 10 % FBS at 28 °C. Cytotoxicity in mammalian cells was determined in fibroblast line (L929) and macrophages (J774 A1). Fibroblasts were cultured in DMEM medium (pH 7.2) supplemented with 10 % FBS at 37 °C in a 5 % CO2 atmosphere. Macrophages were cultured in RPMI‐1640 (pH 7.2) medium supplemented with 10 % FBS at 37 °C in a 5 % CO2 atmosphere.
(§2) Stock solutions of the compounds were prepared in DMSO and then diluted in the respective medium.
(§3) Fibroblast cell (2.5×10^5 cells.mL^−1) suspensions were prepared in DMEM medium supplemented with 10 % FBS and added to 96‐well plates. Then, the plates were incubated at 37 °C in a CO2 atmosphere for 24 h to obtain confluent cell growth. After incubation, cells were treated with different concentrations of compounds diluted in DMEM for 72 h or left untreated. Macrophage (5×10^5 cells.mL^−1) suspensions were prepared in RPMI‐1640 medium supplemented with 10 % FBS and added to 96‐well plates. Then, the plates were incubated at 37 °C in a CO2 atmosphere for 24 h to obtain confluent cell growth. After incubation, cells were treated with different concentrations of compounds diluted in RPMI‐1640 for 48 h or left untreated. After treatment, the medium was removed, and cells were incubated with MTT (2 mg.mL^−1) for 4 h. Then, DMSO was added for solubilization of the formazan and analyzed with a reading microplate reader (BIO‐TEK PowerWave XS spectrophotometer) at […].[20] The percentage of viable cells was calculated in relation to the untreated control group to determine the cytotoxic concentration in 50 % of the cells (CC50). The control groups of each experiment received the same experimental conditions as the treated groups (cell concentration used, temperature, CO2, and incubation time).

[2] = tested on: epimastigote forms of Trypanosoma cruzi (Y strain); experiment: Antiproliferative assay (XTT), epimastigote forms, 96 h; format: cell-based; conditions: for IC50: Trypanosoma cruzi, epimastigote form, 96 h, XTT, read-out: T. cruzi IC50; for SIT-F, selectivity index (Fibroblast CC50/T. cruzi IC50): fibroblast vs epimastigote; for SIT-M, selectivity index (Macrophages CC50/T. cruzi IC50): macrophages vs epimastigote
Protocol: as §1, §2
(§4) Promastigote forms (1×10^6 parasites.mL^−1) were cultured in 96‐well plates in the presence and absence of different concentrations of compounds diluted in Warren medium supplemented with 10 % FBS and incubated for 72 h. The epimastigote forms (1×10^6 parasites.mL^−1) were cultured in 96‐well plates in the presence and absence of different concentrations of compounds diluted in LIT medium supplemented with 10 % FBS and incubated for 96 h. After treatment, the parasites were incubated with a solution of 2,3‐bis(2‐methoxy‐4‐nitro‐5‐sulfophenyl)‐2H‐tetrazolium‐5‐carboxanilide (XTT; 0.5 mg.mL^−1) and phenazine methanesulfonate activator (PMS; 0.06 mg.mL^−1) in PBS for 4 h. Then, the absorbance was read in a microplate reader (Bio Tek‐Power Wave XS) at 450 nm.[20] The percentage of viable parasites was calculated in relation to the control in order to determine the concentration that inhibits 50 % of the protozoa (IC50). The control groups of each experiment received the same experimental conditions as the treated groups (cell concentration used, temperature, and incubation time).

[3] = tested on: promastigote forms of Leishmania amazonensis (WHOM/BR/75/JOSEFA strain); experiment: Antiproliferative assay (XTT), promastigote forms, 72 h; format: cell-based; conditions: for IC50: Leishmania amazonensis, promastigote form, 72 h, XTT, read-out: L. amazonensis IC50; for SIL-F, selectivity index (Fibroblast CC50/L. amazonensis IC50): fibroblast vs promastigote; for SIL-M, selectivity index (Macrophages CC50/L. amazonensis IC50): macrophages vs promastigote
Protocol: as §1, §2, §4

[4] = Cytotoxicity assay in mammalian cells (MTT), fibroblasts, 72 h; format: cell-based; conditions: mouse, L929 fibroblast cells, pH 7.2; 50 % inhibition of fibroblast growth, 72 h, MTT
Protocol: as §1, §2, §3

Row | Structure (SMILES) | CC50 at 48 h [1] [µM] | melting point [°C] | IC50 [2] [µM] | IC50 [3] [µM] | SIL-F, selectivity index (Fibroblast CC50/L. amazonensis IC50) [3] | SIL-M, selectivity index (Macrophages CC50/L. amazonensis IC50) [3] | CC50 at 72 h [4] [µM] | SIT-F, selectivity index (Fibroblast CC50/T. cruzi IC50) [2] | SIT-M, selectivity index (Macrophages CC50/T. cruzi IC50) [2]
1 | NNC(=O)c1noc(-c2ccc(F)cc2)c1CNc1ccc(Cl)cc1 [3 cb] | 694 ± 10.7 | 178.1 to 181.2 | > 200 | 172 ± 10.4 | 4.67 | 4.04 | 802 ± 11.4 | – | –
2 | COc1ccc(NCc2c(C(=O)NN)noc2-c2ccc(F)cc2)cc1 [3 cc] | 150 ± 4.4 | 171.1 to 173.6 | 65.3 ± 3.6 | 59.2 ± 5.7 | 2.80 | 2.53 | 166 ± 9.6 | 2.54 | 2.29
3 | NNC(=O)c1noc(-c2ccc(Cl)cc2)c1CNc1ccccc1 [3 da] | 257 ± 6.8 | 202.8 to 205.6 | 27.9 ± 2.3 | 23.1 ± 1.5 | 13.21 | 11.12 | 305 ± 11.4 | 10.93 | 9.20
4 | NNC(=O)c1noc(-c2ccc(Cl)cc2)c1CNc1ccc(Cl)cc1 [3 db] | 336 ± 5.1 | 175.9 to 177.8 | 55.7 ± 10.2 | 59.1 ± 4.6 | 6.44 | 5.68 | 381 ± 4.2 | 6.84 | 6.03
5 | COc1ccc(NCc2c(C(=O)NN)noc2-c2ccc(Cl)cc2)cc1 [3 dc] | 210 ± 3.5 | 157 to 158.8 | 49.5 ± 2.9 | 55.8 ± 3.9 | 5.55 | 3.76 | 310 ± 8.9 | 6.25 | 4.24
6 | O=C(N/N=C/c1ccccc1)c1noc(-c2ccc([N+](=O)[O-])cc2)c1CNc1ccccc1 [4 aa, 3‐[(2E)‐N'‐(Benzylidene)hydrazinecarbonyl]‐4‐(phenyl)aminomethyl‐5‐(4‐nitrophenyl)isoxazole] | 100 ± 6 | 92.6 to 94.4 | 35.1 ± 4.6 | 40.7 ± 3.2 | 2.90 | 2.47 | 118 ± 7.3 | – | 2.86
7 | O=C(N/N=C/c1ccccc1)c1noc(-c2ccc([N+](=O)[O-])cc2)c1CNc1ccc(Cl)cc1 [4 ab] | 287.4 ± 2.3 | 177.6 to 179 | 147 ± 10.7 | 133 ± 8.8 | 3.01 | 2.18 | 398 ± 6.9 | 2.71 | 1.96
8 | O=C(N/N=C/c1ccccc1)c1noc(-c2ccccc2)c1CNc1ccccc1 [4 ba] | 385.6 ± 3.2 | 169.9 to 172 | 69.6 ± 3.9 | 76.8 ± 8.7 | 5.32 | 5.02 | 409 ± 7.8 | 5.87 | 5.54
9 | O=C(N/N=C/c1ccccc1)c1noc(-c2ccccc2)c1CNc1ccc(Cl)cc1 [4 bb] | 305 ± 7.4 | 188.4 to 190.1 | 27 ± 1.1 | 27.8 ± 0.7 | 11.57 | 10.98 | 322 ± 9.7 | 11.91 | 11.30
10 | COc1ccc(NCc2c(C(=O)N/N=C/c3ccccc3)noc2-c2ccccc2)cc1 [4 bc] | 176 ± 6.6 | 197.6 to 199.6 | 26.7 ± 3.9 | 21.5 ± 0.8 | 9.75 | 8.20 | 210 ± 4.7 | 7.85 | 6.61
11 | O=C(N/N=C/c1ccccc1)c1noc(-c2ccc(F)cc2)c1CNc1ccccc1 [4 ca] | 784 ± 10.6 | 157.7 to 159.6 | 149 ± 10.3 | 135 ± 11.4 | 6.04 | 5.83 | 814 ± 13.5 | 5.47 | 5.29
12 | O=C(N/N=C/c1ccccc1)c1noc(-c2ccc(F)cc2)c1CNc1ccc(Cl)cc1 [4 cb] | 365 ± 8.7 | 167.9 to 170.5 | 98.7 ± 10.1 | 87.3 ± 6.4 | 4.37 | 4.18 | 381 ± 6.9 | 3.86 | 3.69
13 | COc1ccc(NCc2c(C(=O)N/N=C/c3ccccc3)noc2-c2ccc(F)cc2)cc1 [4 cc] | 300 ± 8.9 | 181.7 to 185.5 | 78.6 ± 7.4 | 56.3 ± 8.5 | 5.46 | 5.32 | 308 ± 9.8 | 3.91 | 3.81
